The source of these data is article PMC9901219 (European Journal of Medicinal Chemistry, 2023).

pIC50: −log10 of the molar value.

The nature of series [1]: Stability of compound in enzymatic assay buffer with GSH. Format: physicochemical.
Series [2] concerns the target T1, SARS-CoV-2 3CLpro (Severe acute respiratory syndrome coronavirus 2, UniProt P0DTD1). The series is described as follows: biochemical.
For the next series, the target named is Cathepsin L (Homo sapiens, UniProt P07711). Type of series: biochemical. The following applies: calpain 1 and cathepsin L versus SARS-CoV-2 3CLpro.
Sequence of Cathepsin L (P07711 114-333): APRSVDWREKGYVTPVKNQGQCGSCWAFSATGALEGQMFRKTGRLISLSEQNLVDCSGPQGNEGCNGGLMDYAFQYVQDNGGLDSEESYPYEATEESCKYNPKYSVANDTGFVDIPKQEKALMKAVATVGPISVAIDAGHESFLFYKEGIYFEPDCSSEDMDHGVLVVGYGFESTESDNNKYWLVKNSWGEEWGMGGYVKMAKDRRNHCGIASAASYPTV
For series [3], the target named is T1, SARS-CoV-2 3CLpro. Format: binding.
The target in a further series is T2, Human Calpain 1 (Homo sapiens, UniProt P07384).
T2 sequence (P07384 1-714): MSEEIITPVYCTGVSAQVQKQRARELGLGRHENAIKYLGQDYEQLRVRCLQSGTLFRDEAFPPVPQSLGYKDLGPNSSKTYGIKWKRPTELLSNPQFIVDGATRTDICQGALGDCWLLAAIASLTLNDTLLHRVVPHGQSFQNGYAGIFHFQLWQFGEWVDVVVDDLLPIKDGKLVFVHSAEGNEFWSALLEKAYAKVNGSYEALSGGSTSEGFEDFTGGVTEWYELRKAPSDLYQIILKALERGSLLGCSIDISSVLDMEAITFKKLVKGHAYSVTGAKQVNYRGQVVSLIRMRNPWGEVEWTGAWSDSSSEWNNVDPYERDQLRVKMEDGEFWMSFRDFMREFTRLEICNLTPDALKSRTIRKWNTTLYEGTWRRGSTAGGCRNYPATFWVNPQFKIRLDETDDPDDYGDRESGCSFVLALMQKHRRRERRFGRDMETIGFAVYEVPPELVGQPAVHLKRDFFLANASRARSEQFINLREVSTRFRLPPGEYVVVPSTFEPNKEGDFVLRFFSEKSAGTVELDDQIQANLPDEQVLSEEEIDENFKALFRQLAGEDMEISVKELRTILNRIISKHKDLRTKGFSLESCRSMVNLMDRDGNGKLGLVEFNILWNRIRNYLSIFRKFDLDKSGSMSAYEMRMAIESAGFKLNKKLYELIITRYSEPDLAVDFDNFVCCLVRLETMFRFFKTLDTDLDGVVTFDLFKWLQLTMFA
T2 sequence (P04632 1-268 partner): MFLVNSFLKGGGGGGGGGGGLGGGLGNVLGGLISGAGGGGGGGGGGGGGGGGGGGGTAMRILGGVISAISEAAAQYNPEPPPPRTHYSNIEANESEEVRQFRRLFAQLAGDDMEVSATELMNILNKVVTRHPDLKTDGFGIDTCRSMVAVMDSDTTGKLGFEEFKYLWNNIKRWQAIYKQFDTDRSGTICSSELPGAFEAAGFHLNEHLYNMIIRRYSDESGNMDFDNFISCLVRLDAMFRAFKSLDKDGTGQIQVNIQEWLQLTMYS
The series is described as follows: Calpain assay. Format: biochemical.

For series [4], the target named is T1, SARS-CoV-2 3CLpro. Format: biochemical.

As a reminder, the pIC50 is −log10 of the IC50, conventionally taken in molar units. Read a high pIC50 as a low IC50. Regarding `Cc1cccc2nc(CSC(=S)NCc3cccnc3)cn12` [Compound 1, (5-methylimidazo[1,2-a]pyridin-2-yl)methyl (pyridin-3-ylmethyl)carbamodithioate], the “disappearance of the compound” value in series [1] (100 μM in enzymatic assay buffer, 2 mM GSH, 1.5 h incubation) is recorded as “less than 10%”. Besides, the “reaction conversion with GSH” value in series [1] (after 90 min, GSH 2 mM) was less than 10%. At SARS-CoV-2 3CLpro [2], the “Assay without GSH pIC50 ± SD” value is on record as 7.67 ± 0.30 and the “SARS-CoV-2 (Beta-CoV) 3CLpro pIC50 ± SD” value was 0.021 (7.67 ± 0.30). The molecule further showed a pIC50 against SARS-CoV-2 3CLpro [2] (SARS-CoV-2 3CLpro IC50) of 5.76. Besides, the “selectivity over two human cysteine proteases” value on Cathepsin L is recorded as “more than 80 fold”. Further, the “Thermal shift ΔTm of SARS-CoV-2 3CLpro with GSH” value at SARS-CoV-2 3CLpro [3] came out at 11.33 °C. The molecule also had a pIC50 at Human Calpain 1 of less than 3.52. Moreover, at Human Calpain 1 (GSH 2 mM, pre-incubation of 30 min), the “Human Calpain 1 pIC50 ± SD” value is on record as greater than 3.52. At SARS-CoV-2 3CLpro [4], the “enzyme inhibition after jump dilution” value is “around 80%”, the “enzyme inhibition after jump dilution (words)” value is recorded as “no more inhibition” and the “time within which inhibition is reversible” value is recorded as no more than 2 h.

`Cc1cccc2nc(CNC(=S)NCc3cccnc3)cn12` [Compound 1A, 1-((5-methylimidazo[1,2-a]pyridin-2-yl)methyl)-3-(pyridin-3-ylmethyl)thiourea]: at SARS-CoV-2 3CLpro [2], the “Assay without GSH pIC50 ± SD” value turned out to be 4.46 ± 0.19 and the “inhibitory effect on SARS-CoV-2 3CLpro” value is “inactive”.

With `CCSC(=S)NCc1cccnc1` [Compound 1B, Ethyl (pyridin-3-ylmethyl)carbamodithioate], the “fold lower potency compared to compound 1” value at SARS-CoV-2 3CLpro [2] came to 8 fold.

Consider `S=C(NCc1cccnc1)OCc1ccccc1` [Compound 1D, O-benzyl(pyridin-3-ylmethyl)carbamothioate], for which the “inhibitory effect on SARS-CoV-2 3CLpro” value against SARS-CoV-2 3CLpro [2] was “inactive”.

`CC(=O)[O-].CC(=O)[O-].[Zn+2]` [zinc acetate, reference compound]: the “inhibitory activity in presence of zinc chelator EDTA” value on SARS-CoV-2 3CLpro [2] was “completely loose its inhibitory activity”.
